According to ChEMBL document CHEMBL2413039, “Novel N-hydroxyfurylacrylamide-based histone deacetylase (HDAC) inhibitors with branched CAP group (Part 2)” (Bioorg Med Chem, 2013):

Experiments:
Homo sapiens [1] = organism: Homo sapiens; assay: Selectivity ratio of IC50 for human recombinant HDAC4 to human recombinant HDAC6
Homo sapiens [2] = organism: Homo sapiens; assay: Selectivity ratio of IC50 for human recombinant HDAC1 to human recombinant HDAC6
Histone deacetylase 4 = Histone deacetylase 4 (Homo sapiens, UniProt P56524); assay: Inhibition of human recombinant HDAC4 using p53 residues 379-382 (RHKKAc) as substrate
Histone deacetylase 4, sequence (P56524 whole entry, the tested form may be a part): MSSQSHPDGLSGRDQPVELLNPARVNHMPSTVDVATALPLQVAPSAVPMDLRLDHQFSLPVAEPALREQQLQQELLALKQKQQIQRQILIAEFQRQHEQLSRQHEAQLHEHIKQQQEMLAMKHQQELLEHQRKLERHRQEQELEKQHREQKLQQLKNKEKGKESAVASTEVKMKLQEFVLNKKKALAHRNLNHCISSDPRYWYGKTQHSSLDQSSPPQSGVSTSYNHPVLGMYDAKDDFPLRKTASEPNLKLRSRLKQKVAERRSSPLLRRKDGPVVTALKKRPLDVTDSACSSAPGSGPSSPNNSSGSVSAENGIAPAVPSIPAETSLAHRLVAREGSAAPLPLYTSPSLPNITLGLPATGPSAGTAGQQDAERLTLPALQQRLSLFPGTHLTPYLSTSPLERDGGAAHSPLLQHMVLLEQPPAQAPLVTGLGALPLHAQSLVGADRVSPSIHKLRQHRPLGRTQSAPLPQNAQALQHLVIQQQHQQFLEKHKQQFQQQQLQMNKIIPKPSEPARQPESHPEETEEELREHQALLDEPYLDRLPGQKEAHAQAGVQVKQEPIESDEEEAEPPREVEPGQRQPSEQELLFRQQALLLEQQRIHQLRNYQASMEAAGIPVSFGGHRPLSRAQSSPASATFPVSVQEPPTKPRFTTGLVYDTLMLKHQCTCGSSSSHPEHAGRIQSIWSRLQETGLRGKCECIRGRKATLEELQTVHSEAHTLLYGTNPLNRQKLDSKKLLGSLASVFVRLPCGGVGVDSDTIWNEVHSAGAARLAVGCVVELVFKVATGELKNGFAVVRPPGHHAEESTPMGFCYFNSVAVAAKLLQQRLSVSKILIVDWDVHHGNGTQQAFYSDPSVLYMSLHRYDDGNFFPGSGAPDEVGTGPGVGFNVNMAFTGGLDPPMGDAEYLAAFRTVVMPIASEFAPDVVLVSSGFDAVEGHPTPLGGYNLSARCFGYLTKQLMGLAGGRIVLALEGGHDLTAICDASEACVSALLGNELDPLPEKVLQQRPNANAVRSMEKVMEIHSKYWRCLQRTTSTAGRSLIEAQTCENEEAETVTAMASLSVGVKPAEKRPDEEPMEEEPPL

Histone deacetylase 1 = Histone deacetylase 1 (Homo sapiens, UniProt Q13547); assay: Inhibition of human recombinant HDAC1 using p53 residues 379-382 (RHKKAc) as substrate
Histone deacetylase 1, sequence (Q13547 whole entry, the tested form may be a part): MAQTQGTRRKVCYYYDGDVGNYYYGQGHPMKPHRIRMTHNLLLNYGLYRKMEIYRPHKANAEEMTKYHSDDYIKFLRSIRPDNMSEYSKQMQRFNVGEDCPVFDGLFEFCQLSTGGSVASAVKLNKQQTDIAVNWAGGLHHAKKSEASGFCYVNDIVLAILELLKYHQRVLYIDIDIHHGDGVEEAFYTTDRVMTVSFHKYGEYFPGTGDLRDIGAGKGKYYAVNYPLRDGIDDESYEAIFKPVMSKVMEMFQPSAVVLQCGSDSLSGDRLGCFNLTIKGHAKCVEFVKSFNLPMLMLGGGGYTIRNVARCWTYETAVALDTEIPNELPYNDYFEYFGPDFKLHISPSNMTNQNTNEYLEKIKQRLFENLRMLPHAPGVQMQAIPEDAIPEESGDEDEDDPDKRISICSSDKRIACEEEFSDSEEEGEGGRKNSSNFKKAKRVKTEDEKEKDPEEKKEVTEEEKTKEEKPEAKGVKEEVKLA

HepG2 = assay: cells; assay type: functional, cell-based; conditions: Homo sapiens, HepG2, 48 h
A549 = assay: cells; assay type: functional, cell-based; conditions: Homo sapiens, A549, 48 h
HCT-116 = assay: cells; assay type: functional, cell-based; conditions: Homo sapiens, HCT-116, 48 h
PC-3 = assay: cells; assay type: functional, cell-based; conditions: Homo sapiens, PC-3, 48 h
Histone deacetylase = assay type: protein assay, Homo sapiens; conditions: hela
[3] = target: T1, Protein deacetylase HDAC6 (Homo sapiens, UniProt Q9UBN7)
T1 sequence (Q9UBN7 whole entry): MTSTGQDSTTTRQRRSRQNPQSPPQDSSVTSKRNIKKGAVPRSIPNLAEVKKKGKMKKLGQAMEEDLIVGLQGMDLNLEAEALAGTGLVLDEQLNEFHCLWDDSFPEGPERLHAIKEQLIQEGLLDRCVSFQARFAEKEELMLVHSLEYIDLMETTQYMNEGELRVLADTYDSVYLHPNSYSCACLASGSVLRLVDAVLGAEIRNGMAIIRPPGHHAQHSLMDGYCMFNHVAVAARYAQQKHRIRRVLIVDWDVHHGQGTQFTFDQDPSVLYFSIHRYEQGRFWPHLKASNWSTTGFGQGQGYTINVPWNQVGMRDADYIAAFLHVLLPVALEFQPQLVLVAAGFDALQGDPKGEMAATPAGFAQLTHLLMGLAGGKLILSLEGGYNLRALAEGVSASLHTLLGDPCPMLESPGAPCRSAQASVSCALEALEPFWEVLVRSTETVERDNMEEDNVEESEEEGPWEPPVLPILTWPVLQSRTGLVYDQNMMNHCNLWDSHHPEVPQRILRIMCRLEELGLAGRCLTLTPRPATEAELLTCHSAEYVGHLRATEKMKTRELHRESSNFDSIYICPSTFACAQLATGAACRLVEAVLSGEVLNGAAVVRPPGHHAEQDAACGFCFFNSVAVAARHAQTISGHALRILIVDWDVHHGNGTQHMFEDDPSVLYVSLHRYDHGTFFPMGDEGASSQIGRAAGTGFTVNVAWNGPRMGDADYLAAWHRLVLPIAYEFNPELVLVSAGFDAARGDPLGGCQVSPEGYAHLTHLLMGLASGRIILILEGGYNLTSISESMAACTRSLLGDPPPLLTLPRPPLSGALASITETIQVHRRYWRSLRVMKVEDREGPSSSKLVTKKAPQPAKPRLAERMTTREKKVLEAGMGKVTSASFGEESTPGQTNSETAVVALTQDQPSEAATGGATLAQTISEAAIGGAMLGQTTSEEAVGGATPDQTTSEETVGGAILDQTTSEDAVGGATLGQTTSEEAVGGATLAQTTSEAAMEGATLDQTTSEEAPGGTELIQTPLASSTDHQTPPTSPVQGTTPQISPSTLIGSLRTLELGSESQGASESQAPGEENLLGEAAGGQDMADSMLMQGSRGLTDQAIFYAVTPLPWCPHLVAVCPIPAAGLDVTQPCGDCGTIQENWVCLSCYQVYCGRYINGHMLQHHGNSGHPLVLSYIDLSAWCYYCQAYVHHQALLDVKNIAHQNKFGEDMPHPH

SMILES | Ratio IC50 (Homo sapiens [1]) | Ratio IC50 (Homo sapiens [2]) | IC50 (Histone deacetylase 4) [µM] | IC50 (Histone deacetylase 1) [µM] | EC50 (HepG2) [µM] | EC50 (A549) [µM] | EC50 (HCT-116) [µM] | EC50 (PC-3) [µM] | IC50 (Histone deacetylase) [µM] | IC50 [3] [µM]
O=C(/C=C/c1ccc(CN(CCOc2ccccc2)Cc2ccccc2)o1)NO | 26.2 | 10.5 | 50.6 | 20.2 | 44.7 | 52.3 | 20.1 | > 128 | > 2.55 | 1.93
O=C(CCCCCCC(=O)Nc1ccc([C@H]2O[C@@H](CSc3nc(-c4ccccc4)c(-c4ccccc4)o3)C[C@@H](c3ccc(CO)cc3)O2)cc1)NO | – | 7 | – | – | – | – | – | – | – | –
O=C(/C=C/c1ccc(CN(CCO)CCc2ccc3c(c2)OCO3)o1)NO | – | – | – | – | 105 | 87.9 | 69.5 | 92.5 | 0.4 | –
Cc1ccc(OCCN(CCc2ccc3c(c2)OCO3)Cc2ccc(/C=C/C(=O)NO)o2)cc1 | 11.3 | 3.83 | 52.5 | 17.8 | 66.7 | 27 | 28.5 | 18.7 | 0.84 | 4.65
O=C(/C=C/c1ccc(CN(Cc2ccccc2)Cc2ccc(-c3ccccc3)cc2)o1)NO | – | – | – | – | 66.6 | 69.8 | 9.01 | 14.3 | > 2.55 | –
Cc1ccc(OCCCN(Cc2ccc(-c3ccccc3)cc2)Cc2ccc(/C=C/C(=O)NO)o2)cc1 | – | – | – | – | 11.7 | 11.5 | 2.22 | 18.1 | 1.66 | –
Cc1ccc(OCCCN(Cc2ccccc2)Cc2ccc(/C=C/C(=O)NO)o2)cc1 | 14.2 | 10.4 | 13.2 | 9.66 | 5.95 | 7.95 | 6.02 | 42.2 | 2.54 | 0.93
CC(C)CN(CCc1ccc2c(c1)OCO2)Cc1ccc(/C=C/C(=O)NO)o1 | – | – | – | – | 38 | 39.3 | 17.1 | 16.1 | > 2.69 | –
CC(C)CN(Cc1ccccc1)Cc1ccc(/C=C/C(=O)NO)o1 | 11.2 | 18.7 | 12.3 | 20.6 | 27.7 | 20.5 | 26.3 | 18.8 | 3.17 | 1.1
CCCCCN(Cc1ccc(-c2ccccc2)cc1)Cc1ccc(/C=C/C(=O)NO)o1 | – | – | – | – | 19.7 | 14.7 | 8.23 | 13.4 | > 2.39 | –
CCCCCCN(Cc1ccccc1)Cc1ccc(/C=C/C(=O)NO)o1 | – | – | – | – | 21.8 | 11 | 8.96 | 23.8 | 2.65 | –
CCCCCCCCN(Cc1ccc(-c2ccccc2)cc1)Cc1ccc(/C=C/C(=O)NO)o1 | – | – | – | – | 36.9 | 28.8 | 10.4 | 36.8 | > 2.17 | –
O=C(/C=C/c1ccc(CN(CCCCOc2ccccc2)Cc2ccccc2)o1)NO | – | – | – | – | 14.7 | 10.6 | 6.43 | 35.9 | 2.12 | –
CCN(Cc1ccc(-c2ccccc2)cc1)Cc1ccc(/C=C/C(=O)NO)o1 | 6.87 | 4.11 | 5.72 | 3.42 | 12.8 | 8.4 | 1.84 | 67.9 | 1.25 | 0.83
O=C(/C=C/c1ccc(CN(CCCCOc2ccccc2)Cc2ccc(-c3ccccc3)cc2)o1)NO | – | – | – | – | 32.9 | 22.4 | 2.76 | 23.6 | > 2.02 | –
